Test results as given in patent publication US20080107619A1, “Carbohydrate based cellulase inhibitors as feeding stimulants in termites” (University of Florida Research Foundation, Inc., priority 2006, published 2008).

Tested on: β-glucosidase
Assay: Post-feeding inhibition of β-glucosidase activity in whole-body homogenates
Format: in vivo, R. flavipes
Conditions: after 24 days feeding at 25 mM and above
Protocol: Whole body homogenates were used for optimization and post-feeding inhibition studies. Here, 10-15 termite workers were homogenized in 1 to 1.5 ml ice-cold homogenization buffer with a Teflon-glass (Potter-Elvehjem) homogenizer powered by a motorized electric stirrer (Fisher Scientific). After homogenization, both gut region and whole-body preparations were centrifuged at 15,000× g and 4° C. for 15 min. The resulting supernatants from the different gut regions were used directly for subsequent enzyme assays. Supernatants from whole-body homogenates were passed through glass wool to remove excess lipids before proceeding with cellulase activity assays.
Cellulase activity assays were adapted from Han et al. in “Characterization of a bifunctional cellulase and its structural gene,” J. Biol. Chem. 270 (1995) 26012-26019, with optimization for a 96-well microplate format. […] Color was allowed to develop on ice for 15 min before measuring absorbance at 540 nm relative to a glucose standard curve.
The hydrolysis product of both the pNPC and pNPG substrates is p-nitrophenol, which is yellow in color and permits for direct quantification of activity in a kinetic assay. pNPC and pNPG assays were initially incubated at 32° C. for 20 min before measuring the release of the product, p-nitrophenol, at 420 nm. […]

Compound: OC[C@@H]1[C@@H](O[C@@H]2O[C@H](CO)[C@@H](O)[C@H](O)[C@H]2O)[C@H](O)[C@@H](O)c2nccn21 [CBI, cellobioimidazole]
- β-glucosidase activity, maximal reduction relative to controls: ~90%
